Among the data in the Kinase Knowledgebase extract (Sharma et al. 2016) are Ki values, retold here.

One may read the Ki as the equilibrium dissociation constant of an inhibitor or competing ligand from its target. A low value points to a stronger hold on the target.

In this assay the target is CDK2 (human) (UniProt P24941). In words: Enzyme Assay.
In turn, `CCNCc1cncc(-c2ccc3[nH]nc(-c4ncc(C(=O)N5CCN(C)CC5)[nH]4)c3c2)c1C` yielded a Ki below 50 nM.

`CCNCc1cncc(-c2ccc3[nH]nc(-c4nc(-c5cccc(F)c5)c[nH]4)c3c2)c1C` displayed a Ki below 50 nM.

In turn, `CCCCCC.CCNCc1cncc(-c2ccc3[nH]nc(-c4nc(CC)c(C)[nH]4)c3c2)c1C` returned a Ki below 50 nM.

Turning to `Cc1c(CNC(C)C)cncc1-c1ccc2[nH]nc(-c3ncc[nH]3)c2c1`, the Ki was below 50 nM.

Consider `CCNCc1cncc(-c2ccc3[nH]nc(-c4ncc(C(=O)N(CCN(C)C)Cc5ccccc5)[nH]4)c3c2)c1C`, for which the Ki was below 50 nM.

`CCNCc1cncc(-c2ccc3[nH]nc(-c4ncc(C(=O)N5CC=C(c6ccccc6)CC5)[nH]4)c3c2)c1C`: the Ki was below 50 nM.

For the compound `CCNCc1cncc(-c2ccc3[nH]nc(-c4ncc(C(=O)N5CCCC5)[nH]4)c3c2)c1C`, the Ki is below 50 nM.

Consider `CCNCc1cncc(-c2ccc3[nH]nc(-c4ncc(C(=O)N5CCCCCC5)[nH]4)c3c2)c1C`, for which the Ki was below 50 nM.

Compound `CCNCc1cncc(-c2ccc3[nH]nc(-c4nc(-c5ccc(F)cc5)c[nH]4)c3c2)c1C` gave a Ki below 50 nM.

In the case of `CCNCc1cncc(-c2ccc3[nH]nc(-c4nc(CC(C)C)c(C)[nH]4)c3c2)c1C`, the Ki was below 50 nM.

For the compound `CCNCc1cncc(-c2ccc3[nH]nc(-c4ncc(C(=O)N5CCN(Cc6ccccc6)CC5)[nH]4)c3c2)c1C`, the Ki was below 50 nM.

The compound `CCNCc1cncc(-c2ccc3[nH]nc(-c4ncc(C(=O)N(CC)CC)[nH]4)c3c2)c1C` yielded a Ki below 50 nM.

`CCNCc1cncc(-c2ccc3[nH]nc(-c4nc(-c5ccc(Cl)cc5)c(C)[nH]4)c3c2)c1C` displayed an inhibition constant Ki below 50 nM.

The compound `CCNCc1cncc(-c2ccc3[nH]nc(-c4ncc(C(=O)N5CCC(Cc6ncccn6)CC5)[nH]4)c3c2)c1C` registered a Ki below 50 nM.

`CCCc1nc(-c2n[nH]c3ccc(-c4cncc(CNCC)c4C)cc23)[nH]c1C` came in with a Ki below 50 nM.

In turn, `CCNCc1cncc(-c2ccc3[nH]nc(-c4ncc(C(=O)N5CCOCC5)[nH]4)c3c2)c1C` came in with a Ki below 50 nM.

With `CCNCc1cncc(-c2ccc3[nH]nc(-c4ncc(C(=O)NCc5ccccn5)[nH]4)c3c2)c1C`, the Ki is below 50 nM.

In the case of `c1c[nH]c(-c2n[nH]c3ccc(-c4cncc5[nH]ccc45)cc23)n1`, the Ki is below 50 nM.

Compound `CCNCc1cncc(-c2ccc3[nH]nc(-c4nc(-c5ccc(C(F)(F)F)cc5)c(C)[nH]4)c3c2)c1C` gave a Ki below 50 nM.

`CCNCc1cncc(-c2ccc3[nH]nc(-c4nc(-c5ccc(OC)c(OC)c5)c[nH]4)c3c2)c1C` displayed a Ki below 50 nM.

`CCNCc1cncc(-c2ccc3[nH]nc(-c4ncc(C(=O)NCC)[nH]4)c3c2)c1C` yielded a Ki below 50 nM.

As for `CCNCc1cncc(-c2ccc3[nH]nc(-c4ncc(C(=O)N(C)C5CCN(Cc6ccccc6)C5)[nH]4)c3c2)c1C` (stereo not drawn), the Ki was below 50 nM.

In turn, `CCNCc1cncc(-c2ccc3[nH]nc(-c4nc(-c5ccc(OC)cc5)c[nH]4)c3c2)c1C` registered a Ki below 50 nM.

Compound `CNCc1cncc(-c2ccc3[nH]nc(-c4ncc[nH]4)c3c2)c1C` had a Ki below 50 nM.

The compound `CCNCc1cncc(-c2ccc3[nH]nc(-c4nc(-c5ccccc5)c(C)[nH]4)c3c2)c1C` registered a Ki below 50 nM.

As for `CCNCc1cncc(-c2ccc3[nH]nc(-c4nc(-c5cc(Cl)cc(Cl)c5)c(C)[nH]4)c3c2)c1C`, the Ki is below 50 nM.

In the case of `CCNCc1cncc(-c2ccc3[nH]nc(-c4ncc[nH]4)c3c2)c1C`, the inhibitory constant (Ki) is below 50 nM.

In turn, `CCNCc1cncc(-c2ccc3[nH]nc(-c4ncc(C(=O)NC5CCCC5)[nH]4)c3c2)c1C` gave a Ki below 50 nM.

Compound `C[S+](C)[O-].Cc1c(N)cncc1-c1ccc2[nH]nc(-c3nc(-c4ccccc4)c[nH]3)c2c1` displayed a Ki below 50 nM.

In turn, `CCNCc1cncc(-c2ccc3[nH]nc(-c4ncc(C(=O)N5CCN(c6ccc(F)cc6F)CC5)[nH]4)c3c2)c1C` came in with a Ki below 50 nM.

The compound `CCNCc1cncc(-c2ccc3[nH]nc(-c4ncc(C(=O)NC(C)C)[nH]4)c3c2)c1C` showed a Ki below 50 nM.

In turn, `CCNCc1cncc(-c2ccc3[nH]nc(-c4nc(C(=O)NC5CCCCC5)c[nH]4)c3c2)c1C` had a Ki below 50 nM.

For the compound `CNCc1cncc(-c2ccc3[nH]nc(-c4nc(C)c[nH]4)c3c2)c1C`, the Ki is below 50 nM.

Consider `CCNCc1cncc(-c2ccc3[nH]nc(-c4ncc(C(=O)N5CCN(CCOC)CC5)[nH]4)c3c2)c1C`, for which the Ki is below 50 nM.

Turning to `Cc1c(N)cncc1-c1ccc2[nH]nc(-c3nc(-c4cccc(F)c4)c[nH]3)c2c1`, the Ki was below 50 nM.

Compound `CCNCc1cncc(-c2ccc3[nH]nc(-c4ncc(C(=O)N5C[C@@H](C)O[C@@H](C)C5)[nH]4)c3c2)c1C` had a Ki below 50 nM.

The compound `CCNCc1cncc(-c2ccc3[nH]nc(-c4ncc(C(=O)NC5C6CC7CC(C6)CC5C7)[nH]4)c3c2)c1C` (stereo not drawn) came in with a Ki below 50 nM.

For `CCNCc1cncc(-c2ccc3[nH]nc(-c4nc5c([nH]4)CCCC5)c3c2)c1C`, the inhibition constant Ki was below 50 nM.

`CCNCc1cncc(-c2ccc3[nH]nc(-c4ncc[nH]4)c3c2)c1CC` came in with a Ki below 50 nM.

Take `CCNCc1cncc(-c2ccc3[nH]nc(-c4cnc[nH]4)c3c2)c1C`: the Ki is below 50 nM.

Consider `CCNCc1cncc(-c2ccc3[nH]nc(-c4nc(-c5ccccc5)c(C(=O)NCc5ccccc5)[nH]4)c3c2)c1C`, for which the Ki was below 50 nM.

The compound `CCNCc1cncc(-c2ccc3[nH]nc(-c4nc5c([nH]4)CCCC5)c3c2)c1CC` had a Ki below 50 nM.

Compound `CCNCc1cncc(-c2ccc3[nH]nc(-c4nc(CC)c(CC)[nH]4)c3c2)c1C` came in with a Ki below 50 nM.

`CCNCc1cncc(-c2ccc3[nH]nc(-c4ncc(C(=O)N5CCN(c6ccccc6)CC5)[nH]4)c3c2)c1C` had a Ki below 50 nM.

Compound `c1ncc(-c2n[nH]c3ccc(-c4cncc5[nH]ccc45)cc23)[nH]1` showed a Ki below 50 nM.

Consider `CCNCc1cncc(-c2ccc3[nH]nc(-c4cc(C)n[nH]4)c3c2)c1C`, for which the Ki is below 50 nM.

As for `CCNCc1cncc(-c2ccc3[nH]nc(-c4ncc(C(=O)N5CCCC(Cc6ncccn6)CC5)[nH]4)c3c2)c1C` (stereo not drawn), the Ki was below 50 nM.

Turning to `CC(C)(C)O.Cc1c(N)cncc1-c1ccc2[nH]nc(-c3nc(-c4ccc(F)cc4)c[nH]3)c2c1`, the Ki was below 50 nM.

On to `CCNCc1cncc(-c2ccc3[nH]nc(-c4ncc(C(=O)N[C@H]5CCc6ccccc65)[nH]4)c3c2)c1C`, for which the Ki was below 50 nM.

For `CCNCc1cncc(-c2ccc3[nH]nc(-c4ncc(C(=O)NCCN(C)C)[nH]4)c3c2)c1C`, the Ki was below 50 nM.

`CCCCCC.CCNCc1cncc(-c2ccc3[nH]nc(-c4nc(C)c(C)[nH]4)c3c2)c1C` gave a Ki below 50 nM.

In turn, `CCNCc1cncc(-c2ccc3[nH]nc(-c4nc(-c5cccc(OC)c5)c[nH]4)c3c2)c1C` displayed a Ki below 50 nM.

In turn, `CCNCc1cncc(-c2ccc3[nH]nc(-c4nc(C(=O)NCc5cccnc5)c[nH]4)c3c2)c1C` had a Ki below 50 nM.

Compound `CCNCc1cncc(-c2ccc3[nH]nc(-c4nc(-c5cccc(C(F)(F)F)c5)c(C)[nH]4)c3c2)c1C` registered a Ki below 50 nM.

`CCNCc1cncc(-c2ccc3[nH]nc(-c4ncc(C(=O)N[C@@H]5CCc6ccccc65)[nH]4)c3c2)c1C` yielded a Ki below 50 nM.

The compound `CCc1nc(-c2n[nH]c3ccc(-c4cncc(N)c4C)cc23)[nH]c1CC` came in with a Ki below 50 nM.

`CCNCc1cncc(-c2ccc3[nH]nc(-c4ncc(C(=O)N[C@H]5CCCCNC5=O)[nH]4)c3c2)c1C` returned a Ki below 50 nM.

`CCNCc1cncc(-c2ccc3[nH]nc(-c4nc(C)c[nH]4)c3c2)c1C` had a Ki below 50 nM.

Compound `CCNCc1cncc(-c2ccc3[nH]nc(-c4ncc(C(=O)N5CCC6CCCCC6C5)[nH]4)c3c2)c1C` (stereo not drawn) came in with a Ki below 50 nM.

Regarding `CCNCc1cncc(-c2ccc3[nH]nc(-c4ncc(C(=O)N5CCC(Oc6ccccc6)CC5)[nH]4)c3c2)c1C`, the Ki was below 50 nM.

For `CCNCc1cncc(-c2ccc3[nH]nc(-c4ncc(C(=O)NCCOC)[nH]4)c3c2)c1C`, the Ki was below 50 nM.

The compound `CCNCc1cncc(-c2ccc3[nH]nc(-c4ncc(C(=O)N5CCN(Cc6ccccn6)CC5)[nH]4)c3c2)c1C` returned an inhibition constant (Ki) below 50 nM.

In turn, `CCNCc1cncc(-c2ccc3[nH]nc(-c4ncc(C(=O)NCCC5=CCCCC5)[nH]4)c3c2)c1C` registered a Ki below 50 nM.

In the case of `CCNCc1cncc(-c2ccc3[nH]nc(-c4nc(-c5ccccc5)c[nH]4)c3c2)c1C`, the Ki was below 50 nM.

`CCNCc1cncc(-c2ccc3[nH]nc(-c4ncc(C(=O)N5CCCCC5)[nH]4)c3c2)c1C` showed a Ki below 50 nM.

Compound `Cc1c(N)cncc1-c1ccc2[nH]nc(-c3nc4c([nH]3)CCCC4)c2c1` yielded a Ki below 50 nM.

In turn, `C1CCCCC1.COCc1cncc(-c2ccc3[nH]nc(-c4nc5c([nH]4)CCCC5)c3c2)c1C` had a Ki below 50 nM.

Turning to `CCNCc1cncc(-c2ccc3[nH]nc(-c4ncc(C(=O)N5Cc6ccccc6C5)[nH]4)c3c2)c1C`, the Ki was below 50 nM.
